Results: patent US7115624B1, “Method of inhibiting protein tyrosine phosphatase 1B and/or T-cell protein tyrosine phosphatase 4 and/or other PTPases with an Asp residue at position 48” (Novo Nordisk A/S, priority 1999, dated 2006)
Like-named read-outs stand apart in the source and are kept apart here.

What was measured:
PTPα = target: T1, PTPα (Homo sapiens, UniProt P18433); assay: PTPase inhibition, p-nitrophenyl phosphate substrate, Ki; format: biochemical
T1 construct: PTPα D1

PTPε = target: T2, PTPε (Homo sapiens, UniProt P23469); assay: as above; format: biochemical
T2 construct: PTPε D1
T2 sequence (P23469 135-394 limits assumed): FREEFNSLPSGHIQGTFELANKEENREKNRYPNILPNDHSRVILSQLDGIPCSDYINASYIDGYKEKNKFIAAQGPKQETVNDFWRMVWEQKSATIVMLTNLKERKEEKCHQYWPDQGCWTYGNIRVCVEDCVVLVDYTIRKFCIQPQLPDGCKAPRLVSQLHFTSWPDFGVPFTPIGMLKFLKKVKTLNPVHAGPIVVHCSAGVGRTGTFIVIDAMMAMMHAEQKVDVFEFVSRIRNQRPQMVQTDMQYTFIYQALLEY
Description: (§1) The assay conditions are as follows. Appropriate concentrations of the compounds of the invention (e.g., 0.1 to 100 μM) are added to the reaction mixtures containing different concentrations of the substrate, p-nitrophenyl phosphate (range: 0.16 to 10 mM—final assay concentration). The buffer used was 50 mM HEPES pH 7.0, 100 mM sodium chloride, 0.1% (w/v) bovine serum albumin, 5 mM glutathione, and 1 mM EDTA. The reaction was started by addition of the enzyme and carried out in microtiter plates at 25° C. for 60 minutes. The reactions are stopped by addition of NaOH. […] The data are analyzed using nonlinear regression fit to classical Michaelis Menten enzyme kinetic models. Inhibition is expressed as Ki values in μM.

PTPβ = PTPβ (Homo sapiens, UniProt P23467); assay: as above; format: biochemical
Chain of PTPβ (P23467 1703-1963 limits assumed): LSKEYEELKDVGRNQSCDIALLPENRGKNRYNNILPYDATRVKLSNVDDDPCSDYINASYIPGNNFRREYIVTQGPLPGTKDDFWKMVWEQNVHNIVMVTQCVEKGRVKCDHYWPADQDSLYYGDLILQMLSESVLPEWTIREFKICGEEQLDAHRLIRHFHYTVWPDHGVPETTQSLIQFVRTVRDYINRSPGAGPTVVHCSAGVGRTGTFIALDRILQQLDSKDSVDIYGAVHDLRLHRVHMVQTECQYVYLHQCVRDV
Description: as §1

PTP1B = target: T3, PTP1B (Homo sapiens, UniProt P18031); assay: as above; format: biochemical
T3 sequence (P18031 1-321): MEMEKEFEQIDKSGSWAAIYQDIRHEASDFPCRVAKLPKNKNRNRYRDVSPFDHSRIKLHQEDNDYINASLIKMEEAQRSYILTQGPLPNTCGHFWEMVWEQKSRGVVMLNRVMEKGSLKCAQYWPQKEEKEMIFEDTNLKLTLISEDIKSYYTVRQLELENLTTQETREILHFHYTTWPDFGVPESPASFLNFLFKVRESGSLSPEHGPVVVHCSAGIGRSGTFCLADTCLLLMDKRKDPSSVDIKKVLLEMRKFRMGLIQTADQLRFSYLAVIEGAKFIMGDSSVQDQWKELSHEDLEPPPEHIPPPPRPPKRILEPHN
Description: as §1

CD45 = target: T4, CD45 (Homo sapiens, UniProt P08575); assay: as above; format: biochemical; conditions: read-out: Ki values, CD45 D1D2
T4 sequence (P08575 599-1306 limits assumed): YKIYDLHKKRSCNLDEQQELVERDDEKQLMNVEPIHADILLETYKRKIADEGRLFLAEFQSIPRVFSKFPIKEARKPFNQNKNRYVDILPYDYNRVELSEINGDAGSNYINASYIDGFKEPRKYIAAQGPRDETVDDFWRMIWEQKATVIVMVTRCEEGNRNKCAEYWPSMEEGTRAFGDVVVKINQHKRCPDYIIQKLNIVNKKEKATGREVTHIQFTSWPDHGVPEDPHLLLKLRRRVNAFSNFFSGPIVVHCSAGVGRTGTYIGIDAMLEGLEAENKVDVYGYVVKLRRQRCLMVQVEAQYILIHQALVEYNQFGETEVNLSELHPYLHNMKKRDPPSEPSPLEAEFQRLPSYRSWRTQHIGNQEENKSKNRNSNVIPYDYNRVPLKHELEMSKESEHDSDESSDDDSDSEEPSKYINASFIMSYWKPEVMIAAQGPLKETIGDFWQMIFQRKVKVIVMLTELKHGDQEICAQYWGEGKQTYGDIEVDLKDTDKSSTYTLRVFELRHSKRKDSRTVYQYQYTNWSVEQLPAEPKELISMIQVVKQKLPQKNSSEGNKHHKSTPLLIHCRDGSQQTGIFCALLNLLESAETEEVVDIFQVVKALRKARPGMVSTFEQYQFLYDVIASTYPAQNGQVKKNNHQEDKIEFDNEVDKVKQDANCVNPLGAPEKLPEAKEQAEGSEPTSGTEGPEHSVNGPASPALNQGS
Description: as §1

LAR = target: T5, LAR (Homo sapiens, UniProt P10586); assay: as above; format: biochemical; conditions: pH 5.5; D1D2; read-out: Ki values, LAR D1D2
T5 sequence (P10586 1285-1907 limits assumed): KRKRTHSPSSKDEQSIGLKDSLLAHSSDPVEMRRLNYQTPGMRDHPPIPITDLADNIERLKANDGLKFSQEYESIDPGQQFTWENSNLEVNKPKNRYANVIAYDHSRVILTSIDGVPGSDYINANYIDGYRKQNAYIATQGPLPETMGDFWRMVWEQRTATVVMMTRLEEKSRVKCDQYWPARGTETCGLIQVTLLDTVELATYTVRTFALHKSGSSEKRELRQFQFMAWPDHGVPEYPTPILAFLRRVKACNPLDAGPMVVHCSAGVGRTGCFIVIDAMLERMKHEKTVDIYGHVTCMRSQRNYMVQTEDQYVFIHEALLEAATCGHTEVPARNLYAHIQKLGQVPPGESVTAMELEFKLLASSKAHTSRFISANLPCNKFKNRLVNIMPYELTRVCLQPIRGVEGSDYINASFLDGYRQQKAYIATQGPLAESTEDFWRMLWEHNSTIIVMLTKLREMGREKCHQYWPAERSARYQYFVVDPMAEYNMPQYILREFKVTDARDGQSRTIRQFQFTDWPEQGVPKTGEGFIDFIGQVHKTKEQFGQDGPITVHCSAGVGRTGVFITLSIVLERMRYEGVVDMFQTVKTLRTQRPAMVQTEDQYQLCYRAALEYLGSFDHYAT
Description: The compounds are evaluated for biological activity with a truncated form of PTP1B (corresponding to the first 321 amino acids), which was expressed in E. coli and purified to apparent homogeneity using published procedures well-known to those skilled in the art. The enzyme reactions are carried out using standard conditions essentially as described by Burke et al. (Biochemistry 35; 15989–15996 (1996)) incorporated by reference. […] Appropriate concentrations of the compounds of the invention (e.g., 0.1 to 100 μM) are added to the reaction mixtures containing different concentrations of the substrate, p-nitrophenyl phosphate (range: 0.16 to 10 mM—final assay concentration). The buffer used was 50 mM HEPES pH 7.0, 100 mM sodium chloride, 0.1% (w/v) bovine serum albumin, 5 mM glutathione, and 1 mM EDTA. The reaction was started by addition of the enzyme and carried out in microtiter plates at 25° C. for 60 minutes. The reactions are stopped by addition of NaOH. The enzyme activity was determined by measurement of the absorbance at 405 nm with appropriate corrections for absorbance at 405 nm of the compounds and p-nitrophenyl phosphate. The data are analyzed using nonlinear regression fit to classical Michaelis Menten enzyme kinetic models. Inhibition is expressed as Ki values in μM.

SHP-1 = SHP-1 (Homo sapiens, UniProt P29350); assay: biochemical
Chain of SHP-1 (P29350 whole entry): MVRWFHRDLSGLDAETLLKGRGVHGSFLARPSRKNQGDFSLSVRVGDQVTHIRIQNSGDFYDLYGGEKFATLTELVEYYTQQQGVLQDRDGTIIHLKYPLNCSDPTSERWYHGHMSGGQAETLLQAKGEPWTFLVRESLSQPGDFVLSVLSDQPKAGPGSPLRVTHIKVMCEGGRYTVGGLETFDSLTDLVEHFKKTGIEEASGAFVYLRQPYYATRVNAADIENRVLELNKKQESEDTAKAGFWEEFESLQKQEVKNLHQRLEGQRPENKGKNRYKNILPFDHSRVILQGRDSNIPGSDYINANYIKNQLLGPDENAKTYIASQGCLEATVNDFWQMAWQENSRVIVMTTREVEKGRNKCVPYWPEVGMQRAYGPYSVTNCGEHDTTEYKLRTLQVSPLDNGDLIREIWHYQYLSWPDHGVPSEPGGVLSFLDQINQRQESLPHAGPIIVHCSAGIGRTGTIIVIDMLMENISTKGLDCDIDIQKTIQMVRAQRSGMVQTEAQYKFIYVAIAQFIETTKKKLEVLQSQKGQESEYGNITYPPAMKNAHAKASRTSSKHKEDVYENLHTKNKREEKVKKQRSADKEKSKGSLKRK

[1] = pKa of the tetrahydropyridine ring; format: physicochemical; conditions: positively charged tetrahydropyridine ring
[2] = pH 7 (Table 6), read-out: Ki, PTP α residue 48 Asn
[3] = pH 7 (Table 6), read-out: Ki, PTP ε residue 48 Asn
[4] = pH 7 (Table 6), read-out: Ki, PTP β residue 48 Asn
[5] = pH 7 (Table 6), read-out: Ki, PTP1B residue 48 Asp
[6] = pH 5.5, D1, read-out: Ki values, PTPα D1
[7] = pH 5.5, D1, read-out: Ki values, PTPε D1
[8] = pH 5.5, read-out: Ki values, PTPβ
[9] = pH 7, D1 (Table 3), read-out: Ki values, PTPα D1
[10] = pH 7, D1 (Table 3), read-out: Ki values, PTPε D1
[11] = pH 7 (Table 3), read-out: Ki values, PTPβ
[12] = pH 5.5, read-out: Ki values, PTP1B

T1 sequence (P18433 241-501 limits assumed): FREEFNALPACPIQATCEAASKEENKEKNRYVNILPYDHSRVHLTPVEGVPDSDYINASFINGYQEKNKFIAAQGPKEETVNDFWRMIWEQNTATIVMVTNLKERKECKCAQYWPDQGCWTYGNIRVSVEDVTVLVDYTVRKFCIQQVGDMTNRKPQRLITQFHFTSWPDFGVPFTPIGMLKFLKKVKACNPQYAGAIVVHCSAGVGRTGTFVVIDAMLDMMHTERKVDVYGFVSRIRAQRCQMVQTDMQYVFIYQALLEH

Row | SMILES | Ki (PTPβ; [4]) [µM] | Ki (PTP1B; [5]) [µM] | Ki (CD45; pH 5.5, D1D2) [µM] | Ki (PTPα; [6]) [µM] | Ki (PTPε; [7]) [µM] | Ki (LAR) [µM] | Ki (PTPβ; [8]) [µM] | Ki (SHP-1) [µM] | further results
1 | CCOC(=O)N1Cc2sc(NC(=O)C(=O)O)c(C(=O)O)c2CC1CN1C(=O)c2ccccc2C1=O (centres unmarked) [Example 48, 5-(1,3-Dioxo-1,3-dihydro-isoindol-2-ylmethyl)-2-(oxalyl-amino)-4,5,6,7-tetrahydro-thieno[2,3-c]pyridine-3,6-dicarboxylic acid 6-ethyl ester] | 47 | 0.25 |  |  |  |  |  |  | Ki (PTPα; [2]): 900 µM; Ki (PTPε; [3]): 380 µM
2 | O=C(O)C(=O)Nc1sc2c(c1C(=O)O)C[C@@H](CN1C(=O)c3ccccc3C1=O)NC2 [Example 50, (L)-5-(1,3-Dioxo-1,3-dihydro-isoindol-2-ylmethyl)-2-(oxalyl-amino)-4,5,6,7-tetrahydro-thieno[2,3-c]pyridine-3-carboxylic acid] | 8 | 0.07 |  |  |  |  |  |  | Ki (PTPα; [2]): 1000 µM
3 | O=C(O)C(=O)Nc1ccccc1C(=O)O [OBA, 2-(oxalyl-amino)-benzoic acid] |  |  | 160 | 700 | 125 | > 2000 | 32 | 530 | 
4 | O=C(O)C(=O)Nc1sc2c(c1C(=O)O)CC(CN1C(=O)c3cccc(O)c3C1=O)OC2 (centres unmarked) [Example 4, 5-(4-Hydroxy-1,3-dioxo-1,3-dihydro-isoindol-2-ylmethyl)-2-(oxalyl-amino)-4,7-dihydro-5H-thieno[2,3-c]pyran-3-carboxylic acid] |  |  |  |  |  |  |  |  | Ki (CD45; pH 7, D1D2 (Table 3)): 130 µM; Ki (PTPα; [9]): 93 µM; Ki (PTPε; [10]): 11 µM; Ki (PTPβ; [11]): 1.1 µM; Ki (PTP1B; pH 7 (Table 3), read-out: Ki values, PTP1B): 1.9 µM
5 | COc1ccc2c(c1)C(=O)N(CC1OCCc3c1sc(NC(=O)C(=O)O)c3C(=O)O)C2=O (centres unmarked) [Example 26, 7-(5-Methoxy-1,3-dioxo-1,3-dihydro-isoindol-2-ylmethyl)-2-(oxalyl-amino)-4,7-dihydro-5H-thieno[2,3-c]pyran-3-carboxylic-acid] |  |  |  |  |  |  |  |  | Ki (CD45; pH 7, D1D2 (Table 3)): 380 µM; Ki (PTPα; [9]): 620 µM; Ki (PTPε; [10]): 330 µM; Ki (PTPβ; [11]): 8.9 µM
6 | O=C(O)C(=O)Nc1sc2c(c1C(=O)O)CC(CN1C(=O)c3cccc(O)c3C1=O)NC2 (centres unmarked) [Example 52, 5-(4-Hydroxy-1,3-dioxo-1,3-dihydro-isoindol-2-ylmethyl)-2-(oxalyl-amino)-4,5,6,7-tetrahydro-thieno[2,3-c]pyridine-3-carboxylic acid] | 107 | 1.2 |  |  |  |  |  |  | Ki (PTPα; [2]): > 400 µM; Ki (PTPε; [3]): > 500 µM; fold increase of affinity for PTP1B compared to 2-OTPyA (PTP1B): about 13 fold
7 | O=C(O)C(=O)Nc1ccsc1C(=O)O [Example 3-OTA, 3-(oxalyl-amino)-thiophene-2-carboxylic acid] |  |  | 250 | 500 | 350 | > 2000 | 160 | > 2000 | Ki (PTP1B; [12]): 61 µM

Second part, led by results:

Row | Ki (PTPβ; [4]) [µM] | Ki (PTP1B; [5]) [µM] | Ki (CD45; pH 5.5, D1D2) [µM] | Ki (PTPα; [6]) [µM] | Ki (PTPε; [7]) [µM] | Ki (LAR) [µM] | Ki (PTPβ; [8]) [µM] | Ki (SHP-1) [µM] | SMILES | further results
8 |  |  |  | 270 |  |  |  |  | O=C(O)C(=O)Nc1sc2c(c1C(=O)O)CCOC2 [Example 2-OTPA, 2-(Oxalyl-amino)-4,7-dihydro-thieno[2,3-c]pyran-3-carboxylic acid] | Ki (PTPα; [9]): 1100 µM
9 | 8.6 | 0.085 |  |  |  |  |  |  | O=C(O)C(=O)Nc1sc2c(c1C(=O)O)CC(CN1C(=O)c3ccccc3C1=O)NC2 (centres unmarked) [Example 49, 5-(1,3-Dioxo-1,3-dihydro-isoindol-2-ylmethyl)-2-(oxalyl-amino)-4,5,6,7-tetrahydro-thieno[2,3-c]pyridine-3-carboxylic acid] | 
10 |  |  | 70 | 1700 | 590 | > 2000 | 18 | 60 | O=C(O)C(=O)Nc1sccc1C(=O)O [Example 2-OTA, 2-(oxalyl-amino)-thiophene-3-carboxylic acid] | Ki (PTP1B; [12]): 62 µM
11 |  |  | 40 | 300 | 45 | 400 | 14 | 120 | O=C(O)C(=O)Nc1sc2c(c1C(=O)O)CCCC2 [Example 2-OBTA] | 
12 |  |  | 110 | > 2000 | 600 | > 2000 | 150 | 900 | O=C(O)C(=O)Nc1sc2c(c1C(=O)O)CCNC2 [Example 2-OTPyA, 2-(Oxalyl-amino)-4,5,6,7-tetrahydro-thieno[2,3-c]pyridine-3-carboxylic acid] | pKa [1]: > 10; Ki (PTP1B; [12]): 0.3 µM
